Molecular target: T1, Pol theta (1-899) (Homo sapiens, UniProt O75417)
T1 construct: Pol theta (1-899) (5 nM) in assay buffer
Experiment: Pol theta ATPase activity, NADH oxidation-coupled enzymatic assay (ATPase NADH coupling: Standard Screening: hPolQ)
Format: biochemical
Details: Pol theta (1-899) 5 nM
Description: The ability of the compounds of Formula (I) or Table 1 to inhibit ATPase activity of Pol theta (1-899) was determined using the assay described below. Pol Theta ATPase activity was determined by measuring the rate of ATP turn over in a NADH oxidation-coupled enzymatic assay. 10-point dilution series of compounds were used in a 384 well format for the inhibition assays. Pol theta (1-899) (5 nM) in assay buffer (20 mM Tris HCl (pH 7.80), 80 mM KCl, 10 mM MgCl2, 1 mM DTT, 0.01% BSA, 0.01% Tween, 5% glycerol) was transferred to the test wells (20 μL), except the low control wells (20 μL of assay buffer was added to the low control wells). The plate was then incubated at room temperature for 15 min. An equal volume (20 μL) of 100 μM ATP, 300 nM […] (single-stranded DNA (ssDNA) containing 50 thymine bases), 300 μM NADH, 6 mM PEP, 10 U/mL lactate dehydrogenase and 20 U/mL pyruvate kinase in assay buffer was added to all the test wells. The plate was then centrifuged at 1000 rpm for 1 min. The reaction was monitored for 60 min by measuring absorbance (λ=340 nm) in a Tecan Spark multimode plate reader every minute. The high control (DMSO with enzyme) with low absorbance intensity represents no inhibition of ATPase reaction while the low control (DMSO with buffer) with high absorbance intensity represents full inhibition of ATPase activity. Slope of the reaction progress curves were used to calculate the rate of ATP hydrolysis. The rates were used to determine the percent inhibition using a four-parameter inhibition model to generate IC50, Hill slope and max inhibition.

[1] = NADH oxidation-coupled ATPase assay, compounds of Table 3

T1 sequence (O75417 1-899): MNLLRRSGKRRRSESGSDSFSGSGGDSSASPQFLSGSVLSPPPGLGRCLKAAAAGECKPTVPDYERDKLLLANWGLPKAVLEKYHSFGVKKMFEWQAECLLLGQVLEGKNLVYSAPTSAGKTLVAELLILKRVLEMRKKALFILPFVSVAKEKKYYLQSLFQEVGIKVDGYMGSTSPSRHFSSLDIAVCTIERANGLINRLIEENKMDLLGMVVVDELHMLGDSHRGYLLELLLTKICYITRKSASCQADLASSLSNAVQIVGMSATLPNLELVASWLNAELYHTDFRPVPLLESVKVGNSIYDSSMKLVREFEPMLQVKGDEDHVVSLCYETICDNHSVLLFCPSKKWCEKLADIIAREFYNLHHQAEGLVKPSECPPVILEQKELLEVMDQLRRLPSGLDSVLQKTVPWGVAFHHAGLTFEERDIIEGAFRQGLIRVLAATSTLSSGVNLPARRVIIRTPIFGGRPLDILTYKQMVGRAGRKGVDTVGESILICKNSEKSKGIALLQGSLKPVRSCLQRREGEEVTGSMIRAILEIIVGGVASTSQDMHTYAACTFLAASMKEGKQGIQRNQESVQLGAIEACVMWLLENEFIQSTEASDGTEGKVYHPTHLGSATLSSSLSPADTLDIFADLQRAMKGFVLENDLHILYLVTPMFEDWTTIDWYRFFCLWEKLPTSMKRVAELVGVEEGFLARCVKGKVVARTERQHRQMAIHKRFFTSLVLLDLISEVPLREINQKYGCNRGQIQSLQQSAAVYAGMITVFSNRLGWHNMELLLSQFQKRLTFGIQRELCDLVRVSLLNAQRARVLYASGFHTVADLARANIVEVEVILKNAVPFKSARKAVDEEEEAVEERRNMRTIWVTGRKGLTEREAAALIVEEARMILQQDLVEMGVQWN

Row | IC50 [1] | SMILES | further results
1 | ≤ 0.2 µM | COc1cnc(C)cc1-c1cc(C)ncc1C(=O)Nc1nnc(OC(CC(N)=O)C(F)(F)F)s1 (centres unmarked) [Example 324, N-(5-((4-amino-1,1,1-trifluoro-4-oxobutan-2-yl)oxy)-1,3,4-thiadiazol-2-yl)-5′-methoxy-2′,6-dimethyl-[4,4′-bipyridine]-3-carboxamide] | –
2 | 1 to 10 µM | COc1nnc(NC(=O)c2cnc(C)cc2-c2ccc3c(c2)CCN(C)C3)s1 [Example 432, N-(5-methoxy-1,3,4-thiadiazol-2-yl)-6-methyl-4-(2-methyl-1,2,3,4-tetrahydroisoquinolin-6-yl)nicotinamide] | –
3 | ≤ 0.2 µM | COc1nnc(NC(=O)c2cc(CC#N)ncc2-c2cc(Cl)ncc2OC)s1 [Example 302, 2′-chloro-6-(cyanomethyl)-5′-methoxy-N-(5-methoxy-1,3,4-thiadiazol-2-yl)-[3,4′-bipyridine]-4-carboxamide] | –
4 | ≤ 0.2 µM | COc1cnc(Br)cc1-c1cc(C)ncc1C(=O)Nc1nnc(O[C@H]2CC[C@H](CO)CC2)s1 [Example 315, 2′-bromo-N-(5-(((1r,4r)-4-(hydroxymethyl)cyclohexyl)oxy)-1,3,4-thiadiazol-2-yl)-5′-methoxy-6-methyl-[4,4′-bipyridine]-3-carboxamide] | –
5 | ≤ 0.2 µM | COc1nnc(NC(=O)c2cnc(C)cc2-c2cc(Cl)c([S+](C)[O-])cc2OC)s1 (single isomer, unassigned) [Example 277] | –
6 | ≤ 0.2 µM | COc1cnc(C)c(F)c1-c1cc(C)ncc1C(=O)Nc1nnc(O[C@H]2CC[C@@H](CO)CC2)s1 [Example 257, 3′-fluoro-N-(5-(((1s,4s)-4-(hydroxymethyl)cyclohexyl)oxy)-1,3,4-thiadiazol-2-yl)-5′-methoxy-2′,6-dimethyl-[4,4′-bipyridine]-3-carboxamide] | –
7 | 1 to 10 µM | COc1ccc(-c2cc(C)ncc2C(=O)Nc2nnc(OC)s2)cc1 [Example 377, N-(5-methoxy-1,3,4-thiadiazol-2-yl)-4-(4-methoxyphenyl)-6-methylpyridine-3-carboxamide] | –
8 | ≤ 0.2 µM | COc1cnc(Cl)cc1-c1cc(C)ncc1C(=O)Nc1nnc(O[C@@H]2CCCN([C@H]3CCOC3)C2)s1 [Example 275, 2′-chloro-5′-methoxy-6-methyl-N-(5-(((R)-1-((S)-tetrahydrofuran-3-yl)piperidin-3-yl)oxy)-1,3,4-thiadiazol-2-yl)-[4,4′-bipyridine]-3-carboxamide] | –
9 | 0.5 to 1 µM | COc1nnc(NC(=O)c2cnc(C)cc2-c2cc(Cl)c([S+](C)[O-])cc2OC)s1 (single isomer, unassigned) [Example 298] | –

Further lines, the compound ahead of its results:

Row | SMILES | IC50 [1] | further results
10 | COc1cnc(Cl)cc1-c1cc(C)ncc1C(=O)Nc1nnc(O[C@H]2C[C@H](O)C2)s1 [Example 16, 2′-chloro-N-(5-((1r,3r)-3-hydroxycyclobutoxy)-1,3,4-thiadiazol-2-yl)-5′-methoxy-6-methyl-(4,4′-bipyridine)-3-carboxamide] | – | IC50 (Table 4, ATP, dT50 ssDNA): ≤ 0.2 µM
11 | COc1cnc(Cl)cc1-c1cc(C)ncc1C(=O)Nc1nnc(O[C@H]2CC[C@H](OC)CC2)s1 (single isomer, unassigned) [Example 125, 2′-chloro-5′-methoxy-N-(5-(((1r,4r)-4-methoxycyclohexyl)oxy)-1,3,4-thiadiazol-2-yl)-6-methyl-(4,4′-bipyridine)-3-carboxamide] | – | IC50 (Table 5, ATP, dT50 ssDNA): ≤ 0.2 µM
12 | COc1cnc(Cl)c(F)c1-c1cc(C)ncc1C(=O)Nc1nnc(O[C@H]2CC[C@@H](OC)CC2)s1 (single isomer, unassigned) [Example 152, 2′-chloro-3′-fluoro-5′-methoxy-N-(5-(((1s,4s)-4-methoxycyclohexyl)oxy)-1,3,4-thiadiazol-2-yl)-6-methyl-(4,4′-bipyridine)-3-carboxamide] | – | IC50 (Table 5, ATP, dT50 ssDNA): ≤ 0.2 µM
13 | COc1cnc(Cl)cc1-c1cc(C)ncc1C(=O)Nc1nnc(OCCN(C)CC(F)(F)F)s1 [Example 317, 2′-chloro-5′-methoxy-6-methyl-N-(5-(2-(methyl(2,2,2-trifluoroethyl)amino)ethoxy)-1,3,4-thiadiazol-2-yl)-[4,4′-bipyridine]-3-carboxamide] | ≤ 0.2 µM | –
14 | COc1nnc(NC(=O)c2cnc(C)cc2-c2cncc(C(N)=O)c2)s1 [Example 340, N3′-(5-methoxy-1,3,4-thiadiazol-2-yl)-6′-methyl-[3,4′-bipyridine]-3′,5-dicarboxamide] | 1 to 10 µM | –
15 | COc1cnc(Cl)c(F)c1-c1cc(C)ncc1C(=O)Nc1nnc(O[C@H]2CC[C@H](CO)CC2)s1 [Example 316, 2′-chloro-3′-fluoro-N-(5-(((1r,4r)-4-(hydroxymethyl)cyclohexyl)oxy)-1,3,4-thiadiazol-2-yl)-5′-methoxy-6-methyl-[4,4′-bipyridine]-3-carboxamide] | ≤ 0.2 µM | –
16 | COc1nnc(NC(=O)c2cnc(C)cc2-c2cnc(N)c(C#N)c2)s1 [Example 362, 6-amino-5-cyano-N-(5-methoxy-1,3,4-thiadiazol-2-yl)-6′-methyl-[3,4′-bipyridine]-3′-carboxamide] | 1 to 10 µM | –
17 | COc1cnc(Cl)cc1-c1cc(C)ncc1C(=O)Nc1nnc(O[C@@]2(C)CCOC2)s1 (single isomer, unassigned) [Example 138] | – | IC50 (Table 5, ATP, dT50 ssDNA): ≤ 0.2 µM
18 | COc1cnc(Cl)cc1-c1cc(C)ncc1C(=O)Nc1nnc(O[C@H]2CCC[C@@](C)(O)C2)s1 (single isomer, unassigned) [Example 179] | – | IC50 (Table 5, ATP, dT50 ssDNA): ≤ 0.2 µM
19 | COc1nnc(NC(=O)c2cnc(C)cc2-c2ccccc2OC(F)F)s1 [Example 36, 4-(2-(difluoromethoxy)phenyl)-N-(5-methoxy-1,3,4-thiadiazol-2-yl)-6-methylnicotinamide] | – | IC50 (Table 4, ATP, dT50 ssDNA): ≤ 0.2 µM
20 | COc1nnc(NC(=O)c2cn3c(C)cnc3cc2-c2c(F)cccc2OC)s1 [Example 120, 7-(2-fluoro-6-methoxyphenyl)-N-(5-methoxy-1,3,4-thiadiazol-2-yl)-3-methylimidazo(1,2-a)pyridine-6-carboxamide] | – | IC50 (Table 5, values given as bound, ATP, dT50 ssDNA): > 10 µM
21 | COc1cnc(C)c(F)c1-c1cc(C)ncc1C(=O)Nc1nnc(O[C@@H]2CCC[C@H](O)C2)s1 (single isomer, unassigned) [Example 255] | ≤ 0.2 µM | –
22 | COc1cnc(Br)c(F)c1-c1cc(C)ncc1C(=O)Nc1nnc(O[C@@H]2CCOC2)s1 [Example 201, 2′-bromo-3′-fluoro-5′-methoxy-6-methyl-N-(5-(((R)-tetrahydrofuran-3-yl)oxy)-1,3,4-thiadiazol-2-yl)-(4,4′-bipyridine)-3-carboxamide] | – | IC50 (Table 5, ATP, dT50 ssDNA): ≤ 0.2 µM
23 | COc1nnc(NC(=O)c2cnc(C)cc2-c2ccc(S(C)(=O)=O)nc2)s1 [Example 455, N-(5-methoxy-1,3,4-thiadiazol-2-yl)-6′-methyl-6-(methylsulfonyl)-[3,4′-bipyridine]-3′-carboxamide] | 1 to 10 µM | –
24 | COc1cnc(Cl)cc1-c1cc(C)ncc1C(=O)Nc1nnc(O[C@H]2CCC[C@](C)(O)C2)s1 (single isomer, unassigned) [Example 181] | – | IC50 (Table 5, ATP, dT50 ssDNA): ≤ 0.2 µM
25 | Cc1cc(-c2cc(Br)ncc2OC(F)F)c(C(=O)Nc2nnc(O[C@@H]3CCOC3)s2)cn1 [Example 195, (R)-2′-bromo-5′-(difluoromethoxy)-6-methyl-N-(5-((tetrahydrofuran-3-yl)oxy)-1,3,4-thiadiazol-2-yl)-(4,4′-bipyridine)-3-carboxamide] | – | IC50 (Table 5, ATP, dT50 ssDNA): ≤ 0.2 µM
26 | COc1cnc(Cl)cc1-c1cc(C)ncc1C(=O)Nc1nnc(O[C@H]2COC3(CC3)C2)s1 (single isomer, unassigned) [Example 117] | – | IC50 (Table 5, ATP, dT50 ssDNA): ≤ 0.2 µM
27 | COc1cnc(Cl)cc1-c1cc(C)ncc1C(=O)Nc1nnc(OCC(F)F)s1 [Example 18, 2′-chloro-N-(5-(2,2-difluoroethoxy)-1,3,4-thiadiazol-2-yl)-5′-methoxy-6-methyl-(4,4′-bipyridine)-3-carboxamide] | – | IC50 (Table 4, ATP, dT50 ssDNA): ≤ 0.2 µM
28 | COc1nnc(NC(=O)c2cnc(C)cc2-c2cc(C)ccc2OC)s1 [Example 30, N-(5-methoxy-1,3,4-thiadiazol-2-yl)-4-(2-methoxy-5-methylphenyl)-6-methylnicotinamide] | – | IC50 (Table 4, ATP, dT50 ssDNA): ≤ 0.2 µM
29 | COc1nnc(NC(=O)c2cnc(C)cc2-c2ccnc(C(F)(F)F)c2)s1 [Example 467, N-(5-methoxy-1,3,4-thiadiazol-2-yl)-6-methyl-2′-(trifluoromethyl)-[4,4′-bipyridine]-3-carboxamide] | 0.5 to 1 µM | –
30 | COc1cnc(Cl)cc1-c1cc(C)ncc1C(=O)Nc1nnc(O[C@@H]2C[C@@H]3C[C@H]2C[C@H]3O)s1 (single isomer, unassigned) [Example 263] | ≤ 0.2 µM | –
31 | COc1nnc(NC(=O)c2cnc(C)cc2-c2c(F)cccc2OC(F)F)s1 [Example 32, 4-(2-(difluoromethoxy)-6-fluorophenyl)-N-(5-methoxy-1,3,4-thiadiazol-2-yl)-6-methylnicotinamide] | – | IC50 (Table 4, ATP, dT50 ssDNA): ≤ 0.2 µM
32 | COc1cnc(Br)cc1-c1cc(C)ncc1C(=O)Nc1nnc(O[C@H]2CC[C@H](O)CC2)s1 [Example 194, 2′-bromo-N-(5-(((1r,4r)-4-hydroxycyclohexyl)oxy)-1,3,4-thiadiazol-2-yl)-5′-methoxy-6-methyl-(4,4′-bipyridine)-3-carboxamide] | – | IC50 (Table 5, ATP, dT50 ssDNA): ≤ 0.2 µM
